Laboratory results reported in US6726936B1, “Antimicrobial agents” (Sumitomo Metal Mining Co., Ltd., priority 1998, dated 2004).

How the values were obtained:
[1] = NaCl concentration required to stabilize silver-chloro complex salts; format: physicochemical; details: for NaCl CONCENTRATION REQUIRED TO STABILIZE SILVER-CHLORO COMPLEX SALTS IN AQUEOUS SOLUTION OF 70% (w/v) ETHANOL (b) / NaCl CONCENTRATION REQUIRED TO STABILIZE SILVER-CHLORO COMPLEX SALTS IN WATER (AQUEOUS SOLUTION) (a): 25° C.
Protocol: The concentration of the chloride in the second antimicrobial agent in accordance with the present invention is not particularly limited, but it is preferable that the chloride be added in a predetermined concentration in accordance with the concentration of the silver-chloro complex salts contained in the antimicrobial agent. […] Specifically, the required concentration of the chloride to stabilize the silver-chloro complex salts (at 25° C.) has the following correlation in water or in a 70%(w/v) ethanol aqueous solution.

[2] = upper limit value of the silver-chloro complex salts in sodium chloride-water-ethanol; format: physicochemical; details: water and ethanol mixed in the volume ratio of 32:68, 3%(w/v) of sodium chloride
Source text: For example, in the system of silver-chloro complex salts (sodium tetrachloroargentate (I))-sodium chloride-water-ethanol, the upper limit value of the silver-chloro complex salts is 46 ppm when water and ethanol was mixed in the volume ratio of 32:68 and 3%(w/v) of sodium chloride was contained therein.

[3] = silver ion concentration 0.183 ppm
[4] = silver ion concentration 0.410 ppm
[5] = silver ion concentration 2.600 ppm
[6] = silver ion concentration 8.697 ppm
[7] = silver ion concentration 42.189 ppm

[Cl][Ag-3]([Cl])([Cl])[Cl].[Na+].[Na+].[Na+] [SILVER-CHLORO COMPLEX SALTS, sodium tetrachloroargentate (I)]
ratio of NaCl concentration required in 70% ethanol to that required in water [1, 3]: 0.044 | NaCl CONCENTRATION REQUIRED TO STABILIZE SILVER-CHLORO COMPLEX SALTS IN AQUEOUS SOLUTION OF 70% (w/v) ETHANOL (b) [1, 3]: 0.128 g/L | NaCl CONCENTRATION REQUIRED TO STABILIZE SILVER-CHLORO COMPLEX SALTS IN WATER (AQUEOUS SOLUTION) (a) [1, 3]: 2.925 g/L | ratio of NaCl concentration required in 70% ethanol to that required in water [1, 4]: 0.049 | NaCl CONCENTRATION REQUIRED TO STABILIZE SILVER-CHLORO COMPLEX SALTS IN AQUEOUS SOLUTION OF 70% (w/v) ETHANOL (b) [1, 4]: 0.287 g/L | NaCl CONCENTRATION REQUIRED TO STABILIZE SILVER-CHLORO COMPLEX SALTS IN WATER (AQUEOUS SOLUTION) (a) [1, 4]: 5.850 g/L | ratio of NaCl concentration required in 70% ethanol to that required in water [1, 5]: 0.062 | NaCl CONCENTRATION REQUIRED TO STABILIZE SILVER-CHLORO COMPLEX SALTS IN AQUEOUS SOLUTION OF 70% (w/v) ETHANOL (b) [1, 5]: 1.820 g/L | NaCl CONCENTRATION REQUIRED TO STABILIZE SILVER-CHLORO COMPLEX SALTS IN WATER (AQUEOUS SOLUTION) (a) [1, 5]: 29.250 g/L | ratio of NaCl concentration required in 70% ethanol to that required in water [1, 6]: 0.107 | NaCl CONCENTRATION REQUIRED TO STABILIZE SILVER-CHLORO COMPLEX SALTS IN AQUEOUS SOLUTION OF 70% (w/v) ETHANOL (b) [1, 6]: 6.088 g/L | NaCl CONCENTRATION REQUIRED TO STABILIZE SILVER-CHLORO COMPLEX SALTS IN WATER (AQUEOUS SOLUTION) (a) [1, 6]: 57.038 g/L | ratio of NaCl concentration required in 70% ethanol to that required in water [1, 7]: 0.262 | NaCl CONCENTRATION REQUIRED TO STABILIZE SILVER-CHLORO COMPLEX SALTS IN AQUEOUS SOLUTION OF 70% (w/v) ETHANOL (b) [1, 7]: 29.532 g/L | NaCl CONCENTRATION REQUIRED TO STABILIZE SILVER-CHLORO COMPLEX SALTS IN WATER (AQUEOUS SOLUTION) (a) [1, 7]: 112.905 g/L | upper limit value of the silver-chloro complex salts [2]: 46 ppm
